Measured values reported in patent US11654161B2, “Compositions and methods for neuralgenesis” (priority 2016, dated 2023).

What was measured:
Down's syndrome model = assay: Down's syndrome BMPS exposed to compounds that induce oxidative stress, compared to healthy donor model; conditions: Down's syndrome iPSC-derived model
From the text: FIG. 5A depicts morphological characterization with immunostaining of neurons (MAP2, Syn1, TH, SYP), neural precursor cells (nestin) and glial cells (GFAP) at 8 weeks of differentiation.

BMPS = assay: Resazurin reduction cytotoxicity assay of BMPS after rotenone and MPP+ treatment; format: cell-based, human; conditions: 24 h exposure
Protocol: DMSO was used as vehicle control. MPP+ working solutions were prepared in differentiation medium from 30 mM stocks to reach final concentrations of 10, 50, 100, 500, 1,000, 5,000 and 10,000 μM. Four independent experiments in 3 replicates were performed for each experimental condition (control and toxicant exposure for the different time points). […] Resazurin (7-Hydroxy-3H-phenoxazin-3-one 10-oxide) is a blue dye that is reduced into red fluorescent resorufin by redox reactions in viable cells. 100 μl Resazurin (2 mg/ml stock) were added directly to the 6 well plates (2 ml/well). Plates were incubated for 3 h at 37° C., 5% CO2. Subsequently, 50 μl of medium were transferred from each well in triplicates to a 96-well plate and fluorescence was measured at 530 nm/590 nm (excitation/emission) using a multi-well fluorometric reader CytoFluor series 4000 (PerSeptive Biosystems, Inc). Data were presented as mean±SD. Statistical analysis was performed using Dunnett's test.

Alpha-synuclein (SNCA) = assay: Real time RT-PCR of BMPS after toxicant exposure: SNCA; format: cell-based, human; conditions: for reduction of SNCA gene expression: 24 hours exposure, sub-cytotoxic concentrations
Protocol: (§1) Total RNA was extracted from aggregates every week up to 8 weeks of differentiation using Tripure (Roche, Switzerland) according to Chomczynski and Sacchi (1987). The same RNA extraction method was used to isolate RNA after toxicant treatment. RNA quantity and purity was determined using NanoDrop 2000c (Thermo Scientific). One microgram of RNA was reverse-transcribed using the M-MI V Promega Reverse Transcriptase (Promega) according to the manufacturer's recommendations. For miRNA reverse-transcription 60 ng of RNA were reverse transcribed using TaqMan microRNA Reverse transcription kit in combination with miRNA specific stem-loop primers, which are a part of TaqMAn microRNA expression assay. Upto eight stem-loop primers were multiplexed in one reaction.
(§2) The expression of genes was evaluated using specific Taqman® gene expression assays (Life Technologies). miRNA expression was analyzed using TaqMAn microRNA expression assay in combination with TaqMan miRNA Reverse Transcription kit using protocol described in [77]. […] Real time RT-PCRs were performed using a 7500 Fast Real Time system machine (Applied Biosystems). Fold changes were calculated using the 2(−ΔΔCt) method. β-actin and 18s were used as a housekeeping genes for mRNA and RNU44 for miRNA. There were no statistically significant differences in expression for β-actin, 18s, and RNU44. Data were presented as mean±SD, normalized to housekeeping genes and week 0.

dopaminergic neurons = conditions: for Alterations in other neurofilament 200-positive neurons: cytotoxic concentrations: 10 μM rotenone; for General cytotoxicity and effect on other neuronal types at higher concentrations: up to 50 μM rotenone, up to 5000 μM MPP+
Protocol: Initially, cytotoxicity experiments were performed to estimate sub-cytotoxic concentrations of these two compounds affecting only dopaminergic neurons (FIGS. 4A and 4C). […] Reactive oxygen species (ROS) were measured in the cellular medium using the OxiSelect™ In Vitro ROS/RNS Assay Kit (Cellbiolabs, San Diego, Calif.) as an indication of oxidative stress. […] Real time RT-PCR was performed in order to determine effects of both chemicals on genes related to PD, mitochondrial dysfunction and oxidative stress.
BMPS aggregates were collected at 2, 4 and 8 weeks. BMPS were fixed in 4% paraformaldehyde for 1 hour, washed 3 times in PBS, then incubated for 1 hour in blocking solution consisting of 5% normal goat serum (NGS) in PBS with 0.4% TritonX (Sigma). BMPS were then incubated at 4° C. for 48 hours with a combination of primary antibodies (Table 2) diluted in PBS containing 3% NGS and 0.1% TritonX. BMPS were washed in PBS 3 times after which they were incubated with the appropriate fluorophore-tagged secondary antibody for 1 hour in PBS with 3% NGS at room temperature. Double immunostaining was visualized using the proper combination of secondary antibodies (e.g., goat anti-rabbit secondary antibody conjugated with Alexa 594 and goat anti-mouse secondary antibody conjugated with Alexa 488 (Molecular Probes). Nuclei were counterstained with DRAQ5 dye (Cell Signaling; 1:5000 in 1×PBS) or NucRed Live (Molecular Probes) for 15 minutes before mounted on slides with coverslips and Prolong Gold antifade reagent (Molecular Probes); BMPS used as negative controls for immunostaining were processed omitting the primary antibody. Images were taken using a Zeiss UV-LSM 510 confocal microscope. The experiments were performed in duplicates; at least three different fields of view were analyzed for each combination of antibodies. 3D reconstruction was done using Imaris 7.6.4 software for scientific imaging.

[1] = tested on: Reactive oxygen species (ROS); assay: OxiSelect In Vitro ROS/RNS Assay in cellular medium of BMPS; format: cell-based, human; conditions: 5 μM rotenone, 1000 μM MPP+
From the text: This is a fluorescence-based assay measuring the presence of total free radicals within a sample and was used according to the manufacturer's protocol. The quenched fluorogenic dye dichlorodihydrofluorescin-DiOxyQ (DCFH-DiOxyQ) which is similar to the popular 2′,7′-dichlorodihydrofluorescein diacetate (DCFH-DA) is first primed with a quench removal reagent. The resulted highly reactive non-fluorescent DCFH can react with present ROS species in the cell supernatant and is then oxidized to the highly fluorescent DCF (2′,7′-dichlorodihydroxyfluorescein). At every time point, 50 μl of the cell supernatant was added to a 96-well plate in triplicates and was mixed and incubated with the DCFH-DiOxyQ for 45 minutes. The fluorescence intensity was measured with a fluorescence microplate reader at 480 nm/530 nm (excitation/emission) and was proportional to the total ROS/RNS levels within the sample.

NDUFB1, ATP5C1, ATP50 = assay: Real time RT-PCR of BMPS after toxicant exposure: mitochondrial function genes; format: cell-based, human; conditions: for Expression of genes related to mitochondrial function (NDUFB1, ATP5C1, ATP50): 24 hours exposure, 5 μM rotenone, 1000 μM MPP+; for Mitochondrial function genes (NDUFB1, ATP5C1, ATP50), MPP+ versus rotenone: BMPS treated with MPP+ or rotenone
Protocol: as §1, §2

T-box brain 1 (TBR1) = assay: Real time RT-PCR of BMPS after toxicant exposure: TBR1; format: cell-based, human; conditions: for reduction of TBR1 gene expression: 24 hours exposure, sub-cytotoxic concentrations; for TBR1 gene expression: non-cytotoxic concentrations
Protocol: as §1, §2

[2] = tested on: PD-related genes (TH, TBR1, SNCA, KEAP1, NDUFB1, ATP5C1, ATP50 and CASP1); assay: Real time RT-PCR of BMPS after toxicant exposure: PD-related gene panel; format: cell-based, human; conditions: 5 μM rotenone, 1 mM MPP+
From the text: Induced pluripotent stem cells (iPSC)-derived human-relevant microphysiological systems (MPS) better mimic the organ level, but are too complex for chemical and drug screening. As described herein, a reproducible 3D brain MPS (BMPS) that differentiates into mature neurons and glial cells (astrocytes and oligodendrocytes), which reproduces the topology of neuronal-glial interactions and connectivity in the central nervous system was developed. […]
(§3) Total RNA was extracted from aggregates every week up to 8 weeks of differentiation using Tripure (Roche, Switzerland) according to Chomczynski and Sacchi (1987). […] RNA quantity and purity was determined using NanoDrop 2000c (Thermo Scientific). […]
(§4) The expression of genes was evaluated using specific Taqman® gene expression assays (Life Technologies). miRNA expression was analyzed using TaqMAn microRNA expression assay in combination with TaqMan miRNA Reverse Transcription kit using protocol described in [77]. […] Fold changes were calculated using the 2(−ΔΔCt) method. β-actin and 18s were used as a housekeeping genes for mRNA and RNU44 for miRNA. […]

[3] = tested on: Tyrosine hydroxylase (TH) mRNA; assay: Real time RT-PCR of BMPS after toxicant exposure: TH; format: cell-based, human; conditions: for TH mRNA expression decreased by: 24 hours, 5 μM rotenone, 1000 E M MPP+; for TH gene expression compared to controls: BMPS treated with rotenone or MPP+
Protocol: as §1, §2

KEAP1 = assay: Real time RT-PCR of BMPS after toxicant exposure: KEAP1; format: cell-based, human; conditions: 24 h exposure to 1 mM MPP+
From the text: In one embodiment, the model described herein is useful for studying Parkinson's disease (PD). Traditionally, PD has been described as a pre-synaptic degenerative process that affects dopaminergic neurons and induces a fundamental motor disorder, however, non-motor symptoms can also be present. Research in Parkinson's disease is experiencing an upswing at the moment, owing to a lack of curative drugs for the large number of patients. […] These model toxins are mainly used in mice and primates (and less in cell cultures) to model a disease state resembling PD. Human neurons, which would be most relevant, are not usually available and existing cell lines are only very poor substitutes. […]
as §3, §4

Caspase-1 (CASP1) = assay: Real time RT-PCR of BMPS after toxicant exposure: Caspase-1; format: cell-based, human
Protocol: as §1
as §2, with “Data were presented as mean±SD, normalized to housekeeping genes and week 0.” left out

| SMILES | cytotoxic concentrations (BMPS) | reduction of SNCA gene expression (Alpha-synuclein (SNCA)) | Alterations in other neurofilament 200-positive neurons (dopaminergic neurons; 1000 μM MPP+) | General cytotoxicity and effect on other neuronal types at higher concentrations (dopaminergic neurons) | ROS production ([1]; 12 hours exposure) | ROS production ([1]; 24 hours exposure) | Expression of genes related to mitochondrial function (NDUFB1, ATP5C1, ATP50) (NDUFB1, ATP5C1, ATP50) | Mitochondrial function genes (NDUFB1, ATP5C1, ATP50), MPP+ versus rotenone (NDUFB1, ATP5C1, ATP50) | reduction of TBR1 gene expression (T-box brain 1 (TBR1)) | TBR1 gene expression (T-box brain 1 (TBR1)) | Expression of PD-related genes [2] | TH mRNA expression decreased by [3] | TH gene expression compared to controls [3] | other results |
| --- | --- | --- | --- | --- | --- | --- | --- | --- | --- | --- | --- | --- | --- | --- |
| C[n+]1ccc(-c2cc[n+](C)cc2)cc1 [paraquat] |  |  |  |  |  |  |  |  |  |  |  |  |  | Response of Down's syndrome model compared to model from healthy donors (Down's syndrome model): more sensitive to these compounds than the healthy model |
| C=C(C)[C@H]1Cc2c(ccc3c2O[C@@H]2COc4cc(OC)c(OC)cc4[C@@H]2C3=O)O1 [rotenone] | 10 µM | 72±6% | did not show any alterations in other neurofilament 200-positive neurons | led to general cytotoxicity and affected also other neuronal types stained positive for neurofilament 200 | no statistically significant changes | increase in ROS production | tended to decrease in expression but these changes were not statistically significant | down-regulated | 70±13% | down-regulated | altered expression of PD-related genes | 84%±11 | decreased TH gene expression compared to controls | SNCA gene expression (Alpha-synuclein (SNCA); 5 μM rotenone, 1 mM MPP+): Reduction of SNCA |
| C[n+]1ccc(-c2ccccc2)cc1 [MPP+, 1-methyl-4-phenylpyridinium] | 1000 µM | 41±40% | did not show any alterations in other neurofilament 200-positive neurons | led to general cytotoxicity and affected also other neuronal types stained positive for neurofilament 200 | no statistically significant changes | increase in ROS production | tended to decrease in expression but these changes were not statistically significant | down-regulated, more strongly | 76±22% | down-regulated | altered expression of PD-related genes | 70%±9 | decreased TH gene expression compared to controls | KEAP1 expression (oxidative stress marker) (KEAP1): increase in KEAP1 expression; Statistical significance of change in SNCA expression (Alpha-synuclein (SNCA); BMPS exposed to 1 mM MPP+): no statistically significant changes in SNCA expression; Disruption of dopaminergic neurons observed by immunohistochemistry (dopaminergic neurons; 5 μM rotenone, 100 μM MPP+): disrupted dopaminergic neurons; Dopaminergic effects at concentrations selected for further studies (dopaminergic neurons; 5 μM rotenone, 1000 μM MPP+): induced clear and selective dopaminergic effects; Selective disruption of dopaminergic neurons but not of any other cell types (immunohistochemistry) (dopaminergic neurons; 24 h, 1p M rotenone, 100 μM MPP+, BMPS differentiated 4 weeks): Selective disruption of dopaminergic neurons but not of any other cell types; Degeneration of dopaminergic neurons (dopaminergic neurons; treatment of BMPS (FIGS. 4E and 4F)): induced specific degeneration of dopaminergic neurons; Caspase-1 (CASP1) expression (Caspase-1 (CASP1); 24 h exposure to 1 NM MPP+): increased significantly; Caspase-1 gene expression (Caspase-1 (CASP1); 24 hours exposure to MPP+): increased |
